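96-well plates; 48 h exposure; 5 concentrations. Endpoints by linear interpolation between flanking doses. Not reached: highest tested concentration assigned. GI50 is the concentration that inhibits growth by half. Definition used: TGI = concentration required for complete inhibition of growth.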
What was measured:
Experiment in all cases: growth of human tumour cells (NCI), 48 h
[1] = tested on: CCRF-CEM leukemia
[2] = tested on: NCI-H460 lung
[3] = tested on: SF-539 CNS
[4] = tested on: SN12C renal
[5] = tested on: NCI-H226 lung
[6] = tested on: NCI-H23 lung
[7] = tested on: MOLT-4 leukemia
[8] = tested on: A549 NSCLC
[9] = tested on: OVCAR-3 ovarian
[10] = tested on: UO-31 renal
[11] = tested on: K-562 leukemia
[12] = tested on: SNB-19 CNS
[13] = tested on: M14 melanoma
[14] = tested on: SK-MEL-28 melanoma
[15] = tested on: SNB-75 CNS
[16] = tested on: LXFL 529 NSCLC
[17] = tested on: 786-0 renal
[18] = tested on: RPMI-8226 leukemia
[19] = tested on: CAKI-1 renal
[20] = tested on: MALME-3M melanoma
[21] = tested on: UACC-257 melanoma
[22] = tested on: DMS 273 small cell lung
[23] = tested on: HCC-2998 colon
[24] = tested on: KM20L2 colon
[25] = tested on: SK-MEL-5 melanoma
[26] = tested on: OVCAR-4 ovarian
[27] = tested on: SF-268 CNS
[28] = tested on: U251 CNS
[29] = tested on: KM12 colon
[30] = tested on: LOX IMVI melanoma
[31] = tested on: HL-60(TB) leukemia
[32] = tested on: ACHN renal
[33] = tested on: RXF 393 renal
[34] = tested on: OVCAR-8 ovarian
[35] = tested on: HCT-116 colon
[36] = tested on: IGROV1 ovarian
[37] = tested on: UACC-62 melanoma
[38] = tested on: SF-295 CNS
[39] = tested on: EKVX NSCLC
[40] = tested on: M19-MEL melanoma
[41] = tested on: HOP-62 NSCLC
[42] = tested on: SK-OV-3 ovarian
[43] = tested on: DMS 114 small cell lung
[44] = tested on: SW-620 colon
[45] = tested on: A498 renal
[46] = tested on: HCT-15 colon
[47] = tested on: NCI-H522 lung
[48] = tested on: DLD-1 colon
[49] = tested on: SK-MEL-2 melanoma
[50] = tested on: HT29 colon
[51] = tested on: COLO 205 colon
[52] = tested on: TK-10 renal
[53] = tested on: SNB-78 CNS
[54] = tested on: OVCAR-5 ovarian
[55] = tested on: HOP-92 NSCLC

For `O=C(/C=C/c1ccc(Cl)cc1)c1ccc(Cl)c(Cl)c1`, which TGI [1] is on record?
The TGI was 50.5 µM.

What about the TGI [2] of the same molecule?
The TGI was greater than 100 µM.

And the TGI [3]?
The TGI was 56.9 µM.

And the GI50 [4]?
Its GI50 is 48 µM.

And the TGI [4]?
The TGI was greater than 100 µM.

And the TGI [5]?
Its TGI is 34.9 µM.

What about the TGI [6] of the same molecule?
The TGI was 30.2 µM.

What about the TGI [7] of the same molecule?
The TGI was 69.6 µM.

And the TGI [8]?
Its TGI is greater than 100 µM.

What about the TGI [9] of the same molecule?
The TGI was 48.3 µM.

What about the TGI [10] of the same molecule?
Its TGI is 80.9 µM.

What about the TGI [11] of the same molecule?
The TGI was greater than 100 µM.

What about the TGI [12] of the same molecule?
Its TGI is 75.5 µM.

What about the TGI [13] of the same molecule?
Its TGI is greater than 100 µM.

What about the TGI [14] of the same molecule?
The TGI was 66.7 µM.

And the TGI [15]?
The TGI was 61.5 µM.

What about the TGI [16] of the same molecule?
Its TGI is 92.5 µM.

What about the TGI [17] of the same molecule?
The TGI was greater than 100 µM.

And the TGI [18]?
The TGI was 8.88 µM.

And the TGI [19]?
Its TGI is 53.1 µM.

And the TGI [20]?
The TGI was 62.4 µM.

What about the TGI [21] of the same molecule?
The TGI was 98.8 µM.

What about the TGI [22] of the same molecule?
Its TGI is greater than 100 µM.

What about the TGI [23] of the same molecule?
The TGI was greater than 100 µM.

What about the TGI [24] of the same molecule?
The TGI was greater than 100 µM.

And the TGI [25]?
Its TGI is 68.7 µM.

What about the TGI [26] of the same molecule?
The TGI was greater than 100 µM.

What about the TGI [27] of the same molecule?
Its TGI is greater than 100 µM.

What about the TGI [28] of the same molecule?
The TGI was 44.5 µM.

And the GI50 [29]?
Its GI50 is 12.2 µM.

And the TGI [29]?
Its TGI is greater than 100 µM.

And the TGI [30]?
The TGI was greater than 100 µM.

And the GI50 [31]?
The GI50 was 15.9 µM.

What about the TGI [31] of the same molecule?
The TGI was 45.8 µM.

What about the TGI [32] of the same molecule?
Its TGI is greater than 100 µM.

And the TGI [33]?
The TGI was 72.2 µM.

And the TGI [34]?
Its TGI is 47.9 µM.

What about the TGI [35] of the same molecule?
Its TGI is greater than 100 µM.

What about the TGI [36] of the same molecule?
The TGI was 79.9 µM.

What about the TGI [37] of the same molecule?
Its TGI is 70 µM.

And the TGI [38]?
Its TGI is greater than 100 µM.

What about the TGI [39] of the same molecule?
The TGI was 87.2 µM.

What about the TGI [40] of the same molecule?
Its TGI is greater than 100 µM.

What about the TGI [41] of the same molecule?
Its TGI is 53.9 µM.

And the TGI [42]?
The TGI was 85.9 µM.

What about the TGI [43] of the same molecule?
The TGI was greater than 100 µM.

What about the GI50 [44] of the same molecule?
Its GI50 is 19.6 µM.

And the TGI [44]?
Its TGI is greater than 100 µM.

What about the TGI [45] of the same molecule?
The TGI was greater than 100 µM.

What about the TGI [46] of the same molecule?
The TGI was greater than 100 µM.

What about the TGI [47] of the same molecule?
Its TGI is 42.9 µM.

And the TGI [48]?
The TGI was greater than 100 µM.

What about the TGI [49] of the same molecule?
Its TGI is 47.8 µM.

What about the TGI [50] of the same molecule?
The TGI was greater than 100 µM.

With `Cc1nc(-c2nc(C)c(C(=O)/C=C/c3ccc([N+](=O)[O-])cc3)s2)sc1C(=O)/C=C/c1ccc([N+](=O)[O-])cc1` as the molecule, how does the TGI [2] read?
The TGI was greater than 100 µM.

And the TGI [3]?
Its TGI is greater than 100 µM.

And the TGI [4]?
The TGI was greater than 100 µM.

What about the TGI [5] of the same molecule?
The TGI was greater than 100 µM.

What about the TGI [51] of the same molecule?
The TGI was greater than 100 µM.

What about the TGI [6] of the same molecule?
The TGI was greater than 100 µM.

And the TGI [7]?
The TGI was greater than 100 µM.

And the TGI [8]?
Its TGI is greater than 100 µM.

And the TGI [9]?
Its TGI is greater than 100 µM.

And the TGI [52]?
Its TGI is greater than 100 µM.

What about the TGI [53] of the same molecule?
Its TGI is greater than 100 µM.

And the TGI [10]?
The TGI was greater than 100 µM.

What about the TGI [11] of the same molecule?
The TGI was greater than 100 µM.

And the TGI [12]?
The TGI was greater than 100 µM.

What about the TGI [13] of the same molecule?
Its TGI is greater than 100 µM.

And the TGI [14]?
Its TGI is greater than 100 µM.

What about the TGI [15] of the same molecule?
The TGI was greater than 100 µM.

And the TGI [16]?
Its TGI is greater than 100 µM.

And the TGI [17]?
Its TGI is greater than 100 µM.

What about the TGI [18] of the same molecule?
The TGI was greater than 100 µM.

What about the TGI [19] of the same molecule?
The TGI was greater than 100 µM.

What about the TGI [20] of the same molecule?
The TGI was greater than 100 µM.

And the TGI [21]?
The TGI was greater than 100 µM.

And the TGI [54]?
Its TGI is greater than 100 µM.

And the TGI [23]?
Its TGI is greater than 100 µM.

What about the TGI [24] of the same molecule?
The TGI was greater than 100 µM.

What about the TGI [25] of the same molecule?
The TGI was greater than 100 µM.

What about the TGI [27] of the same molecule?
Its TGI is greater than 100 µM.

And the TGI [28]?
Its TGI is greater than 100 µM.

What about the TGI [29] of the same molecule?
The TGI was greater than 100 µM.

What about the TGI [30] of the same molecule?
Its TGI is greater than 100 µM.

What about the TGI [31] of the same molecule?
Its TGI is greater than 100 µM.

And the TGI [32]?
Its TGI is greater than 100 µM.

What about the TGI [33] of the same molecule?
The TGI was greater than 100 µM.

And the TGI [34]?
Its TGI is greater than 100 µM.

What about the TGI [35] of the same molecule?
Its TGI is greater than 100 µM.

And the TGI [36]?
The TGI was greater than 100 µM.

And the TGI [37]?
The TGI was greater than 100 µM.

And the TGI [38]?
The TGI was greater than 100 µM.

What about the TGI [39] of the same molecule?
Its TGI is greater than 100 µM.

What about the TGI [40] of the same molecule?
The TGI was greater than 100 µM.

What about the TGI [41] of the same molecule?
Its TGI is greater than 100 µM.

What about the TGI [42] of the same molecule?
Its TGI is greater than 100 µM.

What about the TGI [43] of the same molecule?
The TGI was greater than 100 µM.

And the TGI [44]?
The TGI was greater than 100 µM.

What about the TGI [45] of the same molecule?
Its TGI is greater than 100 µM.

What about the TGI [46] of the same molecule?
Its TGI is greater than 100 µM.

What about the TGI [55] of the same molecule?
The TGI was greater than 100 µM.

And the TGI [48]?
Its TGI is greater than 100 µM.

What about the TGI [49] of the same molecule?
Its TGI is greater than 100 µM.

And the TGI [50]?
Its TGI is greater than 100 µM.
